Results published in patent US20070299072A1, “KV1.5 POTASSIUM CHANNEL INHIBITORS” (Wyeth, priority 2006, published 2007).

Legend:
Type in all cases: cell-based
[1] = test system: L-type calcium channels; experiment: FLIPR L-type Calcium Channel Assay (calcium influx in HL-1 cells after KCl); details: read-out: L-type Ca2+ IC50
Description: HL-1 cells expressing endogenous L-type calcium channels are removed from culture flasks using trypsin, plated on fibronectin/gelatin-coated, clear-bottomed, black-walled 96-well microplates in Claycomb media (JRH Biosciences #51800) containing 10% fetal bovine serum, 4 mM L-glutamine, and 10 μM norepinephrine, and grown to confluency overnight. The next day, growth medium is aspirated from confluent cell monolayers and replaced with 100 μL per well Tyrode's solution (in mM: 130 NaCl, 4 KCl, 1.8 CaCl2, 1.0 MgCl2, 20 HEPES, 10 glucose, pH 7.35) and 50 μL per well FLIPR Calcium Assay kit, component A (#R-8033, Molecular Devices Corporation) and incubated for 60 min. in a 5% CO2 37° C. incubator. 50 μL per well test compounds are added to the plates and further incubated for 15 min. in a 5% CO2 37° C. incubator. All final solutions contain the anion exchange inhibitor, probenecid (2.5 mM). The 96-well plates are then placed in the center position of the FLIPR 1 (Fluorometric Imaging Plate Reader, Molecular Devices Corporation). Cell monolayers in each well are simultaneously illuminated at 488 nm with an Argon ion laser, and fluorescence emission is monitored using a 510-570 nm bandpass filter and a cooled CCD camera. To depolarize the plasma membrane and activate L-type calcium channels, 50 μL per well of 20 mM KCl (final concentration) are dispensed simultaneously to all 96 wells using the FLIPR's automatic 96-well pipettor. Fluorescence measurements are captured for 5 min. following KCl addition. Calcium influx, expressed as % control, is calculated for each concentration of test compound and concentration-response curves and IC50 values are generated using GraphPad Prism 4.0.

[2] = molecular target: T1, Kv1.5 (Homo sapiens, UniProt P22460); experiment: Kv1.5 Patch Clamp EP (whole cell patch clamp; single point at 1 μM and IC50); details: single point at 1.0 μM, Kv1.5 stably over expressed in HEK or LTK- cells
T1 construct: expressed in transfected cells; host or cells: HEK or LTK- cells
Description: The external solution is standard Tyrodes solution. […] Inhibition was measured at the end of the 1 second pulses and expressed relative to controls. Initial Kv1.5 inhibition is estimated by single point determinations done at 1 μM.

[3] = molecular target: T2, HERG (Homo sapiens, UniProt Q12809); experiment: HERG Patch Clamp EP (whole cell patch clamp, tail currents; single point at 10 μM and IC50); details: human, HEK cells stably overexpressing HERG, single point at 10 μM, HERG in HEK cells, read-out: HERG % Inhib. @ 10 μM
T2 construct: expressed in transfected cells; host or cells: HEK cells
Excerpt: The external solution is standard Tyrodes solution.

T1 sequence (P22460 whole entry): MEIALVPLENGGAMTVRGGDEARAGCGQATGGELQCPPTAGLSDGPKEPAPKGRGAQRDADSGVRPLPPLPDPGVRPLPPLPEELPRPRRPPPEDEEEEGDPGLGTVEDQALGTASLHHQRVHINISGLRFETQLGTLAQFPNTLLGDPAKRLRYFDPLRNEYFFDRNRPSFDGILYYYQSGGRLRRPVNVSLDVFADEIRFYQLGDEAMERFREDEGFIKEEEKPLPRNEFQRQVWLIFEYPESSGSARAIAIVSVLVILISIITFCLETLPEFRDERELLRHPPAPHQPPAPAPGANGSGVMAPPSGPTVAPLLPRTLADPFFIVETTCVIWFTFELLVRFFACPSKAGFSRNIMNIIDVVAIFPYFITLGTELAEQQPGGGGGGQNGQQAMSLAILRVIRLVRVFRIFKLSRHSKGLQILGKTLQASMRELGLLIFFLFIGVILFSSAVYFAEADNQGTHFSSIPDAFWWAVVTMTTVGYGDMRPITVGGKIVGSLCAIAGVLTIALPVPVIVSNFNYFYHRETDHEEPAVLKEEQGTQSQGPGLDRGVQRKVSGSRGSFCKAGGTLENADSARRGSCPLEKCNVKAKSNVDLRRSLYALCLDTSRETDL
T2 sequence (Q12809 whole entry): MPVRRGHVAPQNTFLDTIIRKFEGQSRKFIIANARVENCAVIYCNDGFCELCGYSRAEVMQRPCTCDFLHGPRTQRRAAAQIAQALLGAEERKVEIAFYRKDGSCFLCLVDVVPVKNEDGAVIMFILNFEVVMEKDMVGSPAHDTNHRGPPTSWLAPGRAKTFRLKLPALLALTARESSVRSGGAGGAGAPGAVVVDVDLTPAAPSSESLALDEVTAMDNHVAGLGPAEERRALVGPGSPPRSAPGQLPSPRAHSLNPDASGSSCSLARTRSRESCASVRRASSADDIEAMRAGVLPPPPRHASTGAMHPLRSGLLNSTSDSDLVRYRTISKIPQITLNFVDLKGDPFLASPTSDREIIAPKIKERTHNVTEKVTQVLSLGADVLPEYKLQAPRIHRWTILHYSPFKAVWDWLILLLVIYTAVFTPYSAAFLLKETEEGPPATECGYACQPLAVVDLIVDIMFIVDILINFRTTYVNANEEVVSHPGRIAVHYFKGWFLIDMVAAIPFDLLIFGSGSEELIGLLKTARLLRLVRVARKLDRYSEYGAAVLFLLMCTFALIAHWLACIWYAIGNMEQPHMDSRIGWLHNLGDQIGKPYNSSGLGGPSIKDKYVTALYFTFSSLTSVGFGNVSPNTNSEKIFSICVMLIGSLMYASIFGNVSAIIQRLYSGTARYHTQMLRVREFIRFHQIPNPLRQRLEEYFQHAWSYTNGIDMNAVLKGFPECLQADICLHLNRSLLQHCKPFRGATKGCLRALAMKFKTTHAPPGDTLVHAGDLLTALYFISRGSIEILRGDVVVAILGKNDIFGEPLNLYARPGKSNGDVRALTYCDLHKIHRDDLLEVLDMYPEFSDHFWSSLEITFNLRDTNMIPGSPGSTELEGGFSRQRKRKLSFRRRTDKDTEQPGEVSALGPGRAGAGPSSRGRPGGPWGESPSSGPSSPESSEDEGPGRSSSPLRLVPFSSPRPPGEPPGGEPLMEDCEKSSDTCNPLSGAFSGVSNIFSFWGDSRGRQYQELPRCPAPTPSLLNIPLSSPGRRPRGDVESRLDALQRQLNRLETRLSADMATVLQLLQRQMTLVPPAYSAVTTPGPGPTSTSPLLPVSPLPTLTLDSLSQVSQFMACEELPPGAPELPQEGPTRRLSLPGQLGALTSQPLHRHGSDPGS

Compound | IC50 [1] | inhibition at 1 µM [2] | inhibition at 10 µM [3]
COc1ccc(CCN2C(=O)C3(CCN(C(=O)OC(C)(C)C)CC3)N(C)C2c2ccc(C3CC3)cc2)cc1 (centres unmarked) [Compound 65, 2-(4-cyclopropylphenyl)-3-[2-(4-methoxyphenyl)ethyl]-1-methyl-4-oxo-1,3,8-triaza-spiro[4.5]decane-8-carboxylic acid tert-butyl ester] | 3.6 µM | 80% | –
COc1ccc(CCN2C(=O)C3(CCN(C(=O)C(C)(C)NC(=O)OC(C)(C)C)CC3)N(C)C2c2ccc(C3CC3)cc2)cc1 (centres unmarked) [Compound 70, (2-{2-(4-cyclopropylphenyl)-3-[2-(4-methoxyphenyl)ethyl]-1-methyl-4-oxo-1,3,8-triaza-spiro[4.5]dec-8-yl}-1,1-dimethyl-2-oxo-ethyl)-carbamic acid tert-butyl ester] | – | 42% | –
CCN(CC)C(=O)N1CCC2(CC1)C(=O)N(CCc1ccc(OC)cc1)C(c1ccc(C3CC3)cc1)N2C (centres unmarked) [Compound 19, 2-(4-Cyclopropylphenyl)-3-[2-(4-methoxyphenyl)ethyl]-1-methyl-4-oxo-1,3,8-triaza-spiro[4.5]decane-8-carboxylic acid diethylamide] | 5.3 µM | 97% | –
COc1ccc(CCN2C(=O)C3(CCNCC3)N(C)C2c2ccc(C(C)(C)C)cc2)cc1 (centres unmarked) [Compound 2, 2-(4-tert-Butylphenyl)-3-[2-(4-methoxyphenyl)ethyl]-1-methyl-1,3,8-triaza-spiro[4.5]decan-4-one] | – | 6% | –
COc1ccc(CCN2C(=O)C3(CCN(C(=O)C(C)(C)N)CC3)N(C)C2c2ccc(C3CC3)cc2)cc1 (centres unmarked) [Compound 59, 8-(2-Amino-2-methylpropionyl)-2-(4-cyclopropylphenyl)-3-[2-(4-methoxyphenyl)ethyl]-1-methyl-1,3,8-triaza-spiro[4.5]decan-4-one] | – | 11% | –
COc1ccc(CCN2C(=O)C3(CCN(CC4CC4)CC3)N(C)C2c2ccc(C3CC3)cc2)cc1 (centres unmarked) [Compound 56, 8-Cyclopropylmethyl-2-(4-cyclopropylphenyl)-3-[2-(4-methoxyphenyl)ethyl]-1-methyl-1,3,8-triaza-spiro[4.5]decan-4-one] | – | 12% | –
COc1ccc(CCN2C(=O)C3(CCN(C(=O)N(C)OC)CC3)N(C)C2c2ccc(C3CC3)cc2)cc1 (centres unmarked) [Compound 28, 2-(4-Cyclopropylphenyl)-N-methoxy-3-[2-(4-methoxyphenyl)ethyl]-N,1-dimethyl-4-oxo-1,3,8-triazaspiro[4.5]decane-8-carboxamide] | 8.4 µM | 88% | –
COc1ccc(CCN2C(=O)C3(CCN(S(C)(=O)=O)CC3)NC2c2ccc(C3CC3)cc2)cc1 (centres unmarked) [Compound 79, 2-(4-cyclopropylphenyl)-3-[2-(4-methoxyphenyl)ethyl]-8-(methylsulfonyl)-1,3,8-triazaspiro[4.5]decan-4-one] | – | 8% | –
COc1ccc(CCN2C(=O)C3(CCNCC3)NC2c2ccc(C(C)(C)C)cc2)cc1 (centres unmarked) [Compound 76, 2-(4-tert-butylphenyl)-3-[2-(4-methoxyphenyl)ethyl]-1,3,8-triazaspiro[4.5]decan-4-one] | – | 5% | –
COc1ccc(CCN2C(=O)C3(CCN(C(=O)OC(C)(C)C)CC3)NC2c2ccc(C(C)(C)C)cc2)cc1 (centres unmarked) [Compound 60, 2-(4-tert-Butylphenyl)-3-[2-(4-methoxyphenyl)ethyl]-4-oxo-1,3,8-triaza-spiro[4.5]decane-8-carboxylic acid tert-butyl ester] | – | 32% | –
COc1ccc(CCN2C(=O)C3(CCN(CC(N)=O)CC3)N(C)C2c2ccc(OC(F)F)cc2)cc1 (centres unmarked) [Compound 57, 2-{2-(4-Difluoromethoxyphenyl)-3-[2-(4-methoxyphenyl)ethyl]-1-methyl-4-oxo-1,3,8-triaza-spiro[4.5]dec-8-yl}acetamide] | – | 25% | –
COc1ccc(CCN2C(=O)C3(CCNCC3)N(C)C2Cc2ccc(C(C)(C)C)cc2)cc1 (centres unmarked) [Compound 69, 2-(4-tert-butylbenzyl)-3-[2-(4-methoxyphenyl)ethyl]-1-methyl-1,3,8-triazaspiro[4.5]decan-4-one] | – | 5% | –
COc1ccc(CCN2C(=O)C3(CCN(C(=O)OC(C)(C)C)CC3)NC2c2ccc(OC)cc2)cc1 (centres unmarked) [Compound 73, tert-butyl 2-(4-methoxyphenyl)-3-[2-(4-methoxyphenyl)ethyl]-4-oxo-1,3,8-triazaspiro[4.5]decane-8-carboxylate] | – | 11% | –

Further lines, with some results ahead:

IC50 [1] | inhibition at 1 µM [2] | Compound | inhibition at 10 µM [3]
10 µM | 73% | CNC(=O)N1CCC2(CC1)C(=O)N(CCCc1ccccc1)C(c1ccc(C3CC3)cc1)N2C (centres unmarked) [Compound 51, 2-(4-Cyclopropylphenyl)-1-methyl-4-oxo-3-(3-phenylpropyl)-1,3,8-triazaspiro-[4.5]decane-8-carboxylic acid methylamide] | –
– | 46% | COc1ccc(CCN2C(=O)C3(CCN(C(N)=O)CC3)N(C)C2c2ccc(OC(F)F)cc2)cc1 (centres unmarked) [Compound 13, 2-(4-Difluoromethoxyphenyl)-3-[2-(4-methoxyphenyl)ethyl]-1-methyl-4-oxo-1,3,8-triaza-spiro[4.5]decane-8-carboxylic acid amide] | 57%
– | 29% | COc1ccc(CCN2C(=O)C3(CCN(C(N)=O)CC3)N(C)C2c2ccc(C(F)(F)F)cc2)cc1 (centres unmarked) [Compound 11, 2-(4-Trifluoromethylphenyl)-3-[2-(4-methoxyphenyl)ethyl]-1-methyl-4-oxo-1,3,8-triaza-spiro[4.5]decane-8-carboxylic acid amide] | 33%
2.5 µM | 84% | CCNC(=O)N1CCC2(CC1)C(=O)N(CCc1ccc(OC)cc1)C(c1ccc(C(C)(C)C)cc1)N2C (centres unmarked) [Compound 15, 2-(4-tert-Butylphenyl)-3-[2-(4-methoxyphenyl)ethyl]-1-methyl-4-oxo-1,3,8-triaza-spiro[4.5]decane-8-carboxylic acid ethyl amide] | –
– | 2% | COc1ccc(CCN2C(=O)C3(CCNCC3)N(C)C2c2ccc(C3CC3)cc2)cc1 (centres unmarked) [Compound 1, 2-(4-Cyclopropylphenyl)-3-[2-(4-methoxyphenyl)ethyl]-1-methyl-1,3,8-triaza-spiro[4.5]decan-4-one] | –
– | 16% | CN1C(c2ccc(C3CC3)cc2)N(CCc2ccc(OC(F)(F)F)cc2)C(=O)C12CCNCC2 (centres unmarked) [Compound 78, 2-(4-cyclopropylphenyl)-1-methyl-3-{2-[4-(trifluoromethoxy)phenyl]ethyl}-1,3,8-triazaspiro[4.5]decan-4-one] | –
– | 31% | COc1ccc(CCN2C(=O)C3(CCN(C(=O)NC(C)C)CC3)N(C)C2c2ccc(OC)cc2)cc1 (centres unmarked) [Compound 17, 2-(4-Methoxyphenyl)-3-[2-(4-methoxyphenyl)ethyl]-1-methyl-4-oxo-1,3,8-triaza-spiro[4.5]decane-8-carboxylic acid isopropylamide] | –
– | 5% | COc1ccc(C2NC3(CCN(C(=O)OC(C)(C)C)CC3)C(=O)N2CCCc2ccccc2)cc1 (centres unmarked) [Compound 87, tert-butyl 2-(4-methoxyphenyl)-4-oxo-3-(3-phenylpropyl)-1,3,8-triazaspiro[4.5]decane-8-carboxylate] | –
– | 28% | COc1ccc(CCN2C(=O)C3(CCN(C(=O)OC(C)(C)C)CC3)N(C)C2c2ccc(C(C)(C)C)cc2)cc1 (centres unmarked) [Compound 38, tert-Butyl 2-(4-tert-butylphenyl)-3-[2-(4-methoxyphenyl)ethyl]-1-methyl-4-oxo-1,3,8-triazaspiro[4.5]decane-8-carboxylate] | –
– | 22% | COc1ccc(CCN2C(=O)C3(CCN(C(=O)OC(C)(C)C)CC3)N(C)C2c2ccc(OC(F)F)cc2)cc1 (centres unmarked) [Compound 40, tert-Butyl 2-(4-difluoromethoxyphenyl)-3-[2-(4-methoxyphenyl)ethyl]-1-methyl-4-oxo-1,3,8-triazaspiro[4.5]decane-8-carboxylate] | –
– | 6% | COc1ccc(CCN2C(=O)C3(CCNCC3)N(C)C2c2ccc(OC(F)F)cc2)cc1 (centres unmarked) [Compound 3, 2-(4-Difluoromethoxyphenyl)-3-[2-(4-methoxyphenyl)ethyl]-1-methyl-1,3,8-triaza-spiro[4.5]decan-4-one] | –
– | 16% | COc1ccc(CCN2C(=O)C3(CCN(C(=O)OC(C)(C)C)CC3)N(C)C2Cc2ccc(C(C)(C)C)cc2)cc1 (centres unmarked) [Compound 97, tert-butyl 2-(4-tert-butylbenzyl)-3-[2-(4-methoxyphenyl)ethyl]-1-methyl-4-oxo-1,3,8-triazaspiro[4.5]decane-8-carboxylate] | –
